For this data set, the system named is rodent carcinogenicity bioassays, tumor incidence. Nature of the data set: CCRIS carcinogenicity studies. In short, it runs like this: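 Archive of carcinogenicity, mutagenicity, tumor promotion and tumor inhibition results drawn from journals, NCI reports and other sources, expert-reviewed; covers 1985-2011 and is no longer updated.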

Results on 5 molecules are retold here after PubChem BioAssay AID1259411 (Chemical Carcinogenesis Research Information System (CCRIS), 2018).

Structures are written as SMILES. Active and inactive are the calls of the source. How the calls were made is not given here.

`C=CC(=O)OCC`: the carcinogen call is “active; positive” (Species: MOUSE, Strain/Sex: B6C3F1/FEMALE, Route: GAVAGE, Dose: 0, 100, 200 MG/KG IN CORN OIL FOR 103 WK, Dose: 0, 100, 200 MG/KG IN CORN OIL FOR 103 WK, Tumor Site: Type of Lesion: FORESTOMACH: SQUAMOUS CELL PAPILLOMA OR CARCINOMA); “inactive; negative” (Species: MOUSE, Strain/Sex: B6C3F1/FEMALE, Route: INHALATION, Dose: 0, 5 PPM 6 HR/D 5 D/WK FOR 24 MO (STUDY DURATION: 24 MO)); “inactive; negative” (Species: MOUSE, Strain/Sex: B6C3F1/FEMALE, Route: INHALATION, Dose: 0, 25, 75 PPM 6 HR/D 5 D/WK FOR 27 MO (STUDY DURATION: 27 MO), Dose: 0, 25, 75 PPM 6 HR/D 5 D/WK FOR 27 MO (STUDY DURATION: 27 MO)); “inactive; negative” (Species: MOUSE, Strain/Sex: B6C3F1/FEMALE, Route: INHALATION, Dose: 0, 225 PPM 6 HR/D 5 D/WK FOR 6 MO (STUDY DURATION: 27 MO)); “active; positive” (Species: MOUSE, Strain/Sex: B6C3F1/MALE, Route: GAVAGE, Dose: 0, 100, 200 MG/KG IN CORN OIL FOR 103 WK, Dose: 0, 100, 200 MG/KG IN CORN OIL FOR 103 WK, Tumor Site: Type of Lesion: FORESTOMACH: SQUAMOUS CELL PAPILLOMA, SQUAMOUS CELL CARCINOMA); “inactive; negative” (Species: MOUSE, Strain/Sex: B6C3F1/MALE, Route: INHALATION, Dose: 0, 5 PPM 6 HR/D 5 D/WK FOR 24 MO (STUDY DURATION: 24 MO)). The carcinogen call is, setting by setting: (Species: MOUSE, Strain/Sex: B6C3F1/MALE, Route: INHALATION, Dose: 0, 25, 75 PPM 6 HR/D 5 D/WK FOR 27 MO (STUDY DURATION: 27 MO), Dose: 0, 25, 75 PPM 6 HR/D 5 D/WK FOR 27 MO (STUDY DURATION: 27 MO)) “inactive; negative”; (Species: MOUSE, Strain/Sex: B6C3F1/MALE, Route: INHALATION, Dose: 0, 225 PPM 6 HR/D 5 D/WK FOR 6 MO (STUDY DURATION: 27 MO)) “inactive; negative”; (Species: MOUSE, Strain/Sex: C3H/MALE, Route: DERMAL, Dose: 0, 23 MG IN 25 µL ACETONE 3/WK FOR LIFESPAN (STUDY DURATION: LIFESPAN)) “inactive; negative”; (Species: MOUSE, Strain/Sex: TGAC/FEMALE, Route: DERMAL, Dose: 0, 60, 300, 600 UMOL IN 200 µL ACETONE 3/WK FOR 20 WK (STUDY DURATION: 20 WK), Dose: 0, 60, 300, 600 UMOL IN 200 µL ACETONE 3/WK FOR 20 WK (STUDY DURATION: 20 WK)) “inactive; negative”; (Species: RAT, Strain/Sex: F344/FEMALE, Route: GAVAGE, Dose: 0, 100, 200 MG/KG IN CORN OIL FOR 103 WK, Dose: 0, 100, 200 MG/KG IN CORN OIL FOR 103 WK, Tumor Site: Type of Lesion: FORESTOMACH: SQUAMOUS CELL PAPILLOMA, SQUAMOUS CELL PAPILLOMA OR CARCINOMA) “active; positive”; (Species: RAT, Strain/Sex: F344/FEMALE, Route: INHALATION, Dose: 0, 5 PPM 6 HR/D 5 D/WK FOR 24 MO (STUDY DURATION: 24 MO)) “inactive; negative”. Also, the carcinogen call reads like this: (Species: RAT, Strain/Sex: F344/FEMALE, Route: INHALATION, Dose: 0, 25, 75 PPM 6 HR/D 5 D/WK FOR 27 MO (STUDY DURATION: 27 MO), Dose: 0, 25, 75 PPM 6 HR/D 5 D/WK FOR 27 MO (STUDY DURATION: 27 MO)) “inactive; negative”; (Species: RAT, Strain/Sex: F344/FEMALE, Route: INHALATION, Dose: 0, 225 PPM 6 HR/D 5 D/WK FOR 6 MO (STUDY DURATION: 27 MO)) “inactive; negative”; (Species: RAT, Strain/Sex: F344/MALE, Route: GAVAGE, Dose: 0, 100, 200 MG/KG IN CORN OIL FOR 103 WK, Dose: 0, 100, 200 MG/KG IN CORN OIL FOR 103 WK, Tumor Site: Type of Lesion: FORESTOMACH: SQUAMOUS CELL PAPILLOMA, SQUAMOUS CELL CARCINOMA) “active; positive”; (Species: RAT, Strain/Sex: F344/MALE, Route: INHALATION, Dose: 0, 5 PPM 6 HR/D 5 D/WK FOR 24 MO (STUDY DURATION: 24 MO)) “inactive; negative”; (Species: RAT, Strain/Sex: F344/MALE, Route: INHALATION, Dose: 0, 25, 75 PPM 6 HR/D 5 D/WK FOR 27 MO (STUDY DURATION: 27 MO), Dose: 0, 25, 75 PPM 6 HR/D 5 D/WK FOR 27 MO (STUDY DURATION: 27 MO)) “inactive; negative”; (Species: RAT, Strain/Sex: F344/MALE, Route: INHALATION, Dose: 0, 225 PPM 6 HR/D 5 D/WK FOR 6 MO (STUDY DURATION: 27 MO)) “inactive; negative”.
`O=C/C=C/c1ccccc1`: the carcinogen call was “inactive; negative” (Species: MOUSE, Strain/Sex: B6C3F1/MALE, FEMALE (50/GROUP), Route: ORAL, Dose: 0, 1000, 2100, 4100 PPM MICROENCAPSULATED IN DIET FOR 2 YR (STUDY DURATION: 2 YR), Dose: 0, 1000, 2100, 4100 PPM MICROENCAPSULATED IN DIET FOR 2 YR (STUDY DURATION: 2 YR), Tumor Site: Type of Lesion: NONE) and “inactive; negative” (Species: RAT, Strain/Sex: F344/N/MALE, FEMALE (50/GROUP), Route: ORAL, Dose: 0, 1000, 2100, 4100 PPM MICROENCAPSULATED IN DIET FOR 2 YR (STUDY DURATION: 2 YR), Dose: 0, 1000, 2100, 4100 PPM MICROENCAPSULATED IN DIET FOR 2 YR (STUDY DURATION: 2 YR), Tumor Site: Type of Lesion: NONE).
In the case of `Nc1ccc(N(CCO)CCO)cc1`, the carcinogen call by setting is: (Species: RAT, Strain/Sex: F344/FEMALE, Route: ORAL, Dose: 0, 300, 1000, 3000 PPM IN DIET FOR 104 WK (STUDY DURATION: 104 WK), Dose: 0, 300, 1000, 3000 PPM IN DIET FOR 104 WK (STUDY DURATION: 104 WK)) “inactive; negative”; (Species: RAT, Strain/Sex: F344/MALE, Route: ORAL, Dose: 0, 300, 1000, 3000 PPM IN DIET FOR 104 WK (STUDY DURATION: 104 WK), Dose: 0, 300, 1000, 3000 PPM IN DIET FOR 104 WK (STUDY DURATION: 104 WK)) “inactive; negative”.
With `CC(C)C(C(=O)OC(C#N)c1cccc(Oc2ccccc2)c1)c1ccc(Cl)cc1` (stereo not given), the carcinogen call reads like this: (Species: MOUSE, Strain/Sex: B6C3F1/FEMALE, Route: ORAL, Dose: 0, 10, 50, 250, 1250 PPM IN THE DIET FOR 2 YR (STUDY DURATION: 2 YR), Dose: 0, 10, 50, 250, 1250 PPM IN THE DIET FOR 2 YR (STUDY DURATION: 2 YR)) “inactive; negative”; (Species: MOUSE, Strain/Sex: B6C3F1/MALE, Route: ORAL, Dose: 0, 10, 50, 250, 1250 PPM IN THE DIET FOR 2 YR (STUDY DURATION: 2 YR), Dose: 0, 10, 50, 250, 1250 PPM IN THE DIET FOR 2 YR (STUDY DURATION: 2 YR)) “inactive; negative”; (Species: MOUSE, Strain/Sex: C57BL/FEMALE, Route: INTRAGASTRIC, Dose: 0, 40, 80 MG/KG IN ARACHIS OIL 5/WK FOR 104 WK (STUDY DURATION: 120 WK), Dose: 0, 40, 80 MG/KG IN ARACHIS OIL 5/WK FOR 104 WK (STUDY DURATION: 120 WK)) “inactive; negative”; (Species: MOUSE, Strain/Sex: C57BL/MALE, Route: INTRAGASTRIC, Dose: 0, 40, 80 MG/KG IN ARACHIS OIL 5/WK FOR 104 WK (STUDY DURATION: 120 WK), Dose: 0, 40, 80 MG/KG IN ARACHIS OIL 5/WK FOR 104 WK (STUDY DURATION: 120 WK)) “inactive; negative”; (Species: RAT, Strain/Sex: SPRAGUE-DAWLEY/MALE,FEMALE, Route: ORAL) “inactive; negative”; (Species: Rat, Strain/Sex: Sprague-Dawley/Male and female (93/Experimental group and 183/Control group), Route: Oral, Dose: 0, 1, 5, 25, 250 ppm in diet for 2 yr, study duration 2 yr, Dose: 0, 1, 5, 25, 250 ppm in diet for 2 yr, study duration 2 yr) “inactive; negative”.
For `O=NN1CCOC1=O`, the carcinogen call is, setting by setting: (Species: HAMSTER, Strain/Sex: SYRIAN/FEMALE, Route: GAVAGE, Dose: 0, 12 MG/ML ((0.2 ML OF A SOLUTION IN ETHYL ACETATE/CORN OIL (1:2)) 1/WK FOR 30 WK (STUDY DURATION: LIFE SPAN), Tumor Site: Type of Lesion: FORESTOMACH: SQUAMOUS CELL CARCINOMA OR ADENOMA) “active; positive”; (Species: RAT, Strain/Sex: F344/FEMALE, Route: INTRAVESICULAR, Dose: 0, 2.4 MG 2/WK FOR 8 WK (STUDY DURATION: LIFETIME), Tumor Site: Type of Lesion: BLADDER: TUMOR) “active; positive”.
